The text below walks through data of patent US6916789B2, “Peyer's patch and/or M-cell targeting ligands” (Merrion Research I Limited, priority 2001, dated 2005).

Where no end group is shown, it is not given here. [ ]: non-standard residue; d: D form.

For series [1], the target named is Caco-2 homogenates. The experiment in a line: Synthetic peptide ELISA-based binding to Caco-2 homogenates (streptavidin-peroxidase detection). Set-up: species or system human. To be noted: for Binding Assay results (Caco-2), Kd / Binding Assay results (Caco-2), category: Tables 9 and 10; for peptide binding: biotin-tagged peptides, Example 5; for binder category / binding to epithelium: ELISA, intestinal epithelial tissue, FIGS. 17A-17B Caco-2 homogenates. The protocol: In order to prepare the Caco-2 cell membrane and cytosolic fractions, confluent Caco-2 cell monolayers (grown in 75 cm^2 flasks for up to 1 week at 37° C. and 5% CO2) were washed twice in Dulbecco's PBS (DPBS). The cell monolayers were then treated with 10 mM EDTA-DPBS for 5-10 minutes at 37° C. and the cells were harvested by centrifugation at 1000 rpm for 5 minutes. The cells were then washed 3×in DPBS. The cell pellet was resuspended in 3 volumes of ice-cold HED buffer (20 mM HEPES (pH 7.67), 1 mM EGTA, 0,5 mM dithiothreitol, 1 mM phenylmethylsuphonyl fluoride (PMSF)) and the cells were allowed to swell for 5 minutes on ice. The cells were then homogenized for 30 seconds. The cell homogenates were then centrifuged in hard walled tubes at 40,000 rpm for 45 minutes at 4° C. (ultracentrifuge Ti90 rotor). The supernatant was removed and the pellet resuspended in HEDG buffer (20 mM HEPES (pH 7.67), 1 mM EGTA, 0.5 mM dithiothreithol, 100 mM NaCl, 10% glycerol, 1 mM PMSF). Three volumes of buffer were then added and the pellet was resuspended and centrifuged again at 1000 rpm for 2 minutes. The supernatant was removed and stored on ice. The procedure was repeated adding the second supernatant to the first and then the procedure was repeated 2-3 more times. The protein concentration was determined using the Bio-Rad protein assay. All fractions were stored at −80° C.
(§1) Peptide sequences (SEQ ID NOs: 3, 4, 5, 7, 8, 9, 10, 11, 14, 15, 16, 17, 19, 20, 26, 28, 29, 30) were synthesized with biotin tags at the amino terminal for all peptides and additionally at the carboxyl terminal for SEQ ID NOs:8 and 14. Binding of these peptides to Caco-2 homogenates and/or to rat intestinal tissue homogenates was tested in an ELISA-based assay with streptavidin-peroxidase detection. […] (See FIGS. 13A-13N).
(In general: In an ELISA, binding on a coated surface is turned into a signal by an enzyme label.)

Series [2] relates to intestinal tissue of different species namely dog, mouse, pig, and rat. The experiment in a line: Peptide binding to intestinal tissue of different species. To be noted: biotin-tagged peptides. The method, then: (§2) Peptide sequences (SEQ ID NOs:3, 7, 8, 9 and 14) were synthesized with biotin tags at the amino terminal for all peptides and additionally at the carboxyl terminal for SEQ ID NOs:8 and 14. Binding of these peptides to intestinal tissue of different species namely dog, mouse, pig, and rat was performed. […] (See FIGS. 14A-14H). Binding of peptides (SEQ ID NOs:8 and 14) to rat tissue from different organs, namely liver, lung, mesenteric lymph nodes, spleen and kidney, was performed. […] (See FIGS. 15A-15E).

Series [3] relates to rat intestinal tissue homogenates. The series is described as follows: Synthetic peptide ELISA-based binding to rat intestinal tissue homogenates. To be noted: biotin-tagged peptides; Example 5. The protocol:
The rat tissue homogenates were prepared by harvesting rat GI and Peyer's patch and storing them on ice until needed, or 1-2 hours. The tissue was then put into homogenization buffer (250 mM Sucrose, 12 mM Tris, 16 mM EDTA) with protease inhibitor cocktail. A hand-held homogenizer was used to break up the tissue for 3-4 minutes. The contents of the homogenizer were then transferred to microfuge tubes and spun at 1500 rpm for 1 minute. The supernatant was taken off and measured for protein content using the Bio-Rad Assay. Specificity studies were then run to allow differentiation between Peyer's patch specific and non-specific binding properties. The 55 high-binding clones were assayed for binding to rat small intestinal homogenates (i.e., homogenate membrane fractions) with and without Peyer's Patch tissue (i.e., tissue homogenate membrane fractions) present. (See FIGS. 6 and 7). The negative control was M13 mp18 with no peptide insert.
as §1

Series [4] has as its system Caco-2 homogenates. The series is described as follows: Peptide coated particles ELISA-based binding to Caco-2 homogenates. Details: species or system human. To be noted: for binding of peptide coated particles: peptide adsorbed to streptavidin particles (0.289 μm). The method, then:
Several phage-derived peptides (SEQ ID NOs: 25, 31, 32, 33, and 40) were adsorbed to streptavidin particles (0.289 μm). Peptide coated particles were tested in an ELISA-based assay for binding to Caco-2 homogenates. […] In addition, when one double-mutant peptide ligand (SEQ ID NO:33), is adsorbed to polystyrene particles binding that is approximately 60% of that of the parent peptide is observed (See FIGS. 19A-19B).

Series [5] relates to rat tissue from different organs, namely liver, lung, mesenteric lymph nodes, spleen and kidney. The series is described as follows: Peptide binding to rat tissue from different organs. The method, then: as §2
Series [6] relates to human Peyer's patch tissue sections. The series is described as follows: Biotinylated peptide binding to human Peyer's patch tissue sections (streptavidin-HRP/DAB staining). To be noted: biotinylated peptide at 50 μg/ml; for binding to human Peyer's patch: 1 hour. The method, then:
Three synthetic peptides (SEQ ID NO:8, 25 and 14) derived from isolated clones were biotinylated and tested for binding to human Peyer's patch tissue sections. In addition, a known negative binding peptide was included as a negative control. Paraffin sections of human Peyer's patch were deparaffinized and […]. The sections were rinsed in PBS. The antigenic determinants on the tissue were unmasked by microwaving in 2.1 g/L acetic acid for 5 minutes and allowed to cool at room temperature for 20 minutes while covered in plastic wrap. After 20 minutes, the sections were washed in PBS and then blocked in endogenous peroxidase in 1% hydrogen peroxide in methanol for 10 minutes. The rinse was repeated and the sections were blocked with 2% BSA in PBS for 20 minutes at room temperature. The sections were incubated with peptide at 50 μg/ml in […] in PBS for 1 hour at room temperature. Control tissue was treated with BSA alone. The sections were rinsed with 0.05% Tween in PBS. Streptavidin-HRP at 1/500 in 2% BSA was added for 30-60 minutes at room temperature. Again, the sections were rinsed with PBS/Tween. DAB substrate was added for up to 5 minutes, and the reaction was stopped by immersing the slides in water. The sections were counterstained using Haematoxlin for 50 seconds and then rinsed in water. The slides were differentiated in 1% acid alcohol for 5-10 seconds and then rinsed in water. The slides were mounted using aqueous mounting medium and a cover slip.

The subject of series [7] is intestinal epithelial tissue. The experiment in a line: Cysteine binding studies: co-incubation with free L-cysteine. To be noted: L-cysteine 100 mM to 0.003 mM; peptide 6.25-25 μg/ml. The method, then: FIG. 16A is a graph of the binding of SEQ ID NO:8 at a concentration of 25 μg/ml to intestinal epithelial tissue in the presence of varying concentrations of free L-cysteine as a function of absorbance at 650 nm.
Peptide SEQ ID NO:8, at a concentration of 6.25 μg/ml, 12.5 μg/ml and 25 μg/ml, was co-incubated with L-cysteine over the concentration range of 100 mM to 0.003 mM. Peptide SEQ ID NO:25, at a concentration of 6.25 μg/ml was co-incubated with L-cysteine over the concentration range of 100 mM to 0.003 mM.

Consider “LETTCASLCYPS [8 dansyl-lysine derivative]”, for which, on Caco-2 homogenates [1], the “Binding Assay results (Caco-2), Kd” value was “(Kd˜1 μg/ml)” and the “Binding Assay results (Caco-2), category” value is listed as “High binder”.
With “LGTDWHSVSYTL (polypeptide ligand) [SEQ ID NO:9]”, in series [2], the “differences in binding profiles to tissue of different species” value (from here on “differences … of different species”) is “No major differences”.
On to “DYDSLSWRSTLH (polypeptide ligand) [SEQ ID NO:3]”, for which the “peptide binding” value (in the series on Caco-2 homogenates [1]; in series [3]) was “High binding” each time. Moreover, the “differences … of different species” value in series [2] is recorded as “No major differences”.
“LETTAASLAYPS (polypeptide ligand) [SEQ ID NO:33]”: in the series on Caco-2 homogenates [1], the “binder category / binding to epithelium” value is recorded as “binding to the epithelium is abrogated” and the “Binding Assay results (Caco-2), category” value is reported as “No binding”. The “binding relative to that of the parent peptide” value in the series on Caco-2 homogenates [4] (peptide adsorbed to polystyrene particles) is reported as “approximately 60%”. Further, the “binding of peptide coated particles” value in the series on Caco-2 homogenates [4] was “Binding was retained”.
With “LETTCASLCYPS [8 biotinylated derivative]”, at Caco-2 homogenates [1], the “Binding Assay results (Caco-2), Kd” value is listed as “(Kd˜8 μg/ml)” and the “Binding Assay results (Caco-2), category” value is recorded as “Medium binder”.
On to “LETTSASLSYPS (polypeptide ligand) [SEQ ID NO:34]”, for which the “Binding Assay results (Caco-2), category” value in the series on Caco-2 homogenates [1] is recorded as “No binding”.
“spyclsacttel ([dS][dP][dY][dC][dL][dS][dA][dC][dT][dT][dE][dL]; cysteine pairing not given here) [SEQ ID NO:35]”: on Caco-2 homogenates [1], the “Binding Assay results (Caco-2), Kd” value is given as “(Kd˜13.91 μg/ml)” and the “Binding Assay results (Caco-2), category” value is given as “Medium binder”.
With “NTRIPEPIRFYM (polypeptide ligand) [SEQ ID NO:14]”, the “binder category / binding to epithelium” value with Caco-2 homogenates [1] is recorded as “low to medium binder”. Also, the “differences … of different species” value in series [2] is given as “No major differences”. In series [5], the “differences in binding profiles to tissues of different organs” value is given as “No major differences”. In addition, in series [6], the “binding to human Peyer's patch” value is listed as “negative for binding”.
For the substance “LETTCASLCYPS (polypeptide ligand) [SEQ ID NO:8]”, in the series with Caco-2 homogenates [1], the “effect of biotin tag at amino or carboxyl end on binding affinities” value is “No differences”; the “binder category / binding to epithelium” value is reported as “medium binder”; the “Binding Assay results (Caco-2), category” value is on record as “Medium binder”; the “peptide binding” value is reported as “High binding”. For the same substance, in series [3], the “peptide binding” value is “High binding”. Besides, in series [2], the “differences … of different species” value is “No major differences”. The “differences in binding profiles to tissues of different organs” value in series [5] is on record as “No major differences”. Further, in series [6], the staining localisation result is recorded as “positive staining on the apical side of human enterocytes” and the “binding to human Peyer's patch” value is recorded as “Positive binding”. Also, the “effect of free L-cysteine on peptide binding” value in series [7] is “prevented binding”.
“vpphpmtyscqy ([dV][dP][dP][dH][dP][dM][dT][dY][dS][dC][dQ][dY]) [SEQ ID NO:37]”: in the series on Caco-2 homogenates [1], the “binder category / binding to epithelium” value is “retained high binding” and the “Binding Assay results (Caco-2), Kd” value was “(Kd˜10 μg/ml)”.
Regarding “VPPHPMTYSAQY (polypeptide ligand) [SEQ ID NO:38]”, in the series on Caco-2 homogenates [1], the “binder category / binding to epithelium” value is reported as “binding to the epithelium is abrogated” and the “Binding Assay results (Caco-2), category” value was “No binding”.
As for LETTAASLCYPS [SEQ ID NO:31], in the series with Caco-2 homogenates [1], the “binder category / binding to epithelium” value is given as “binding is still retained”; the “Binding Assay results (Caco-2), Kd” value is given as “(Kd˜9 μg/ml)”; the “Binding Assay results (Caco-2), category” value is recorded as “Medium binder”. Also, in the series on Caco-2 homogenates [4], the “binding of peptide coated particles” value is listed as “Binding was retained”.
In the case of “VPPHPMTYSCQY (polypeptide ligand) [SEQ ID NO:25]”, in the series on Caco-2 homogenates [1], the “binder category / binding to epithelium” value is “highest binder” and the “peptide binding” value was “High binding”. For the same substance, the “peptide binding” value in series [3] is reported as “High binding”. Besides, in series [6], the staining localisation result is reported as “positive staining on the apical side of human enterocytes” and the “binding to human Peyer's patch” value was “Positive binding”. Also, in series [7], the “effect of free L-cysteine on peptide binding” value is recorded as “prevented binding”. The “binding of peptide coated particles” value in the series on Caco-2 homogenates [4] was “Binding was retained”.
Consider “KPAYTHEYRWLA (polypeptide ligand) [SEQ ID NO:7]”, for which the “differences … of different species” value in series [2] is on record as “No major differences”.
“VPPHPMTYSCQY [25 biotinylated derivative]”: at Caco-2 homogenates [1], the “Binding Assay results (Caco-2), Kd” value is listed as “(Kd < 5 μg/ml)” and the “Binding Assay results (Caco-2), category” value was “High binder”.
Regarding LETTCASLAYPS [SEQ ID NO:32], in the series with Caco-2 homogenates [1], the “binder category / binding to epithelium” value is “binding is still retained”; the “Binding Assay results (Caco-2), Kd” value was “(Kd˜8 μg/ml)”; the “Binding Assay results (Caco-2), category” value was “Medium binder”. For the same substance, the “binding of peptide coated particles” value in the series with Caco-2 homogenates [4] was “Binding was retained”.
For the substance “DYDSLSWRSTLHGGHESSH (polypeptide ligand) [SEQ ID NO:43]”, the “effect of added Zinc-binding motif (HESSH) on binding” value with Caco-2 homogenates [1] (compared with SEQ ID NO:3) was “Enhanced binding”.
“VPPHPMTYSSQY (polypeptide ligand) [SEQ ID NO:39]”: in the series on Caco-2 homogenates [1], the “Binding Assay results (Caco-2), category” value was “No binding”.
Turning to “VPPHPMTYSCQY [25 Dansyl-lysine derivative]”, the “Binding Assay results (Caco-2), Kd” value on Caco-2 homogenates [1] is given as “(Kd < 1 μg/ml)”.
Take “lettcaslcyps ([dL][dE][dT][dT][dC][dA][dS][dL][dC][dY][dP][dS]; cysteine pairing not given here) [SEQ ID NO:36]”: on Caco-2 homogenates [1], the “Binding Assay results (Caco-2), Kd” value is “(Kd˜30.53 μg/ml)”.
In the case of “VCSNMYFSCRLS (polypeptide ligand) [SEQ ID NO:24]”, the “binder category / binding to epithelium” value with Caco-2 homogenates [1] was “medium binder”. In addition, the “peptide binding” value (in the series on Caco-2 homogenates [1]; in series [3]) was “High binding” each time.
